ChEMBL document CHEMBL5678814, “Novel Mps1 Kinase Inhibitors with Potent Antitumor Activity” (Mol Cancer Ther, 2016)

How the values were obtained:
OPM-2 = experiment: Antiproliferative activity against human OPM-2 cells assessed as cell growth inhibition incubated for 96 hrs by crystal violet staining; conditions: OPM-2, 96 h
NCI-H1373 = experiment: Antiproliferative activity against human NCI-H1373 cells assessed as cell growth inhibition incubated for 96 hrs by crystal violet staining; conditions: NCI-H1373, 96 h
TMD8 = experiment: Antiproliferative activity against human TMD8 cells assessed as cell growth inhibition incubated for 96 hrs by MTS assay; format: functional, cell-based; conditions: TMD8, 96 h
MDA-MB-453 = experiment: Antiproliferative activity against human MDA-MB-453 cells assessed as cell growth inhibition incubated for 96 hrs by crystal violet staining; conditions: MDA-MB-453, 96 h
[1] = biological target: Mitogen-activated protein kinase 9 (Homo sapiens, UniProt P45984); experiment: Binding affinity to JNK2 (unknown origin) assessed as dissociation constant
Chain of Mitogen-activated protein kinase 9 (P45984 whole entry): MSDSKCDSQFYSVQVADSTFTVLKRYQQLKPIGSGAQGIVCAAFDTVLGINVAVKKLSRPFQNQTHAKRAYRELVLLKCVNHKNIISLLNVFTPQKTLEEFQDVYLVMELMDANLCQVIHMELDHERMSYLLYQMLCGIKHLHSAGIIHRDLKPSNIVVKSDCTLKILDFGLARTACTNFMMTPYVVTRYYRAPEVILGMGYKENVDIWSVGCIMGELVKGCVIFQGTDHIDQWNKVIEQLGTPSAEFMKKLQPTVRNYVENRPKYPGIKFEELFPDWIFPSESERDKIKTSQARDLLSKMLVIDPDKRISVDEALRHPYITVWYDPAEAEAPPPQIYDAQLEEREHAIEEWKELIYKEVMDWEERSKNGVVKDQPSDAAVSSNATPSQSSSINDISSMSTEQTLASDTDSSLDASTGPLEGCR

[2] = biological target: Serine/threonine-protein kinase 38 (Homo sapiens, UniProt Q15208); experiment: Binding affinity to NDR1 (unknown origin) assessed as dissociation constant
Chain of Serine/threonine-protein kinase 38 (Q15208 whole entry): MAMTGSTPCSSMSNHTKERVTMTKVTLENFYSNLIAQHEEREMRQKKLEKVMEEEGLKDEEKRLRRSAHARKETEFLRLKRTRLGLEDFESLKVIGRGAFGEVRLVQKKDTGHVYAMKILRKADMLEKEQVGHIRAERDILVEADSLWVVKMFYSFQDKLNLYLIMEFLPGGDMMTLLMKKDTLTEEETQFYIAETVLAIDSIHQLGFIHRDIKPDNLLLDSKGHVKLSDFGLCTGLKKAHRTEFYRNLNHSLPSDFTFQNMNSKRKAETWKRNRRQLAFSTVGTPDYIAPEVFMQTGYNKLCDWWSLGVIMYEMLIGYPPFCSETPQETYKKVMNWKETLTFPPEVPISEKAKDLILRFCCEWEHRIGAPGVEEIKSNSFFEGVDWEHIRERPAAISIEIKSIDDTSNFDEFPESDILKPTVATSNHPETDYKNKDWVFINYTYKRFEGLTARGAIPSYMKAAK

NCI-H460 = experiment: Antiproliferative activity against human NCI-H460 cells assessed as cell growth inhibition incubated for 96 hrs by crystal violet staining; conditions: NCI-H460, 96 h
JeKo-1 = experiment: Antiproliferative activity against human JeKo-1 cells assessed as cell growth inhibition incubated for 96 hrs by MTS assay; format: functional, cell-based; conditions: JeKo-1, 96 h

COc1cc(S(C)(=O)=O)ccc1Nc1nc2ccc(-c3ccc(NC(=O)[C@H](C)c4ccc(F)cc4)cc3)cn2n1 [BAY-1161909]
IC50 (OPM-2): 130 nM | IC50 (NCI-H1373): 190 nM | IC50 (TMD8): 240 nM | IC50 (MDA-MB-453): > 3000 nM | Kd [1]: 160 nM | Kd [2]: 40000 nM | IC50 (NCI-H460): 110 nM | IC50 (JeKo-1): 65 nM
